According to patent US20110230476A1, “PI3 KINASE INHIBITORS AND USES THEREOF” (AVILA THERAPEUTICS, INC., priority 2009, published 2011):

Columns and labels:
[1] = biological target: T1, PI3Kα (p110α/p85α) (Homo sapiens, UniProt P42336); assay: HTRF assay, potency against active PI3Kα; assay type: biochemical; conditions: HTRF; [ATP]=50 μM, [di-C8-PIP2]=10 μM; 30 min pre-incubation; read-out: PI3Kα Inhibition
T1 construct: purchased BPS Bioscience (San Diego, Calif.) or Millipore (Billerica, Mass.)
T1 sequence (P42336 whole entry): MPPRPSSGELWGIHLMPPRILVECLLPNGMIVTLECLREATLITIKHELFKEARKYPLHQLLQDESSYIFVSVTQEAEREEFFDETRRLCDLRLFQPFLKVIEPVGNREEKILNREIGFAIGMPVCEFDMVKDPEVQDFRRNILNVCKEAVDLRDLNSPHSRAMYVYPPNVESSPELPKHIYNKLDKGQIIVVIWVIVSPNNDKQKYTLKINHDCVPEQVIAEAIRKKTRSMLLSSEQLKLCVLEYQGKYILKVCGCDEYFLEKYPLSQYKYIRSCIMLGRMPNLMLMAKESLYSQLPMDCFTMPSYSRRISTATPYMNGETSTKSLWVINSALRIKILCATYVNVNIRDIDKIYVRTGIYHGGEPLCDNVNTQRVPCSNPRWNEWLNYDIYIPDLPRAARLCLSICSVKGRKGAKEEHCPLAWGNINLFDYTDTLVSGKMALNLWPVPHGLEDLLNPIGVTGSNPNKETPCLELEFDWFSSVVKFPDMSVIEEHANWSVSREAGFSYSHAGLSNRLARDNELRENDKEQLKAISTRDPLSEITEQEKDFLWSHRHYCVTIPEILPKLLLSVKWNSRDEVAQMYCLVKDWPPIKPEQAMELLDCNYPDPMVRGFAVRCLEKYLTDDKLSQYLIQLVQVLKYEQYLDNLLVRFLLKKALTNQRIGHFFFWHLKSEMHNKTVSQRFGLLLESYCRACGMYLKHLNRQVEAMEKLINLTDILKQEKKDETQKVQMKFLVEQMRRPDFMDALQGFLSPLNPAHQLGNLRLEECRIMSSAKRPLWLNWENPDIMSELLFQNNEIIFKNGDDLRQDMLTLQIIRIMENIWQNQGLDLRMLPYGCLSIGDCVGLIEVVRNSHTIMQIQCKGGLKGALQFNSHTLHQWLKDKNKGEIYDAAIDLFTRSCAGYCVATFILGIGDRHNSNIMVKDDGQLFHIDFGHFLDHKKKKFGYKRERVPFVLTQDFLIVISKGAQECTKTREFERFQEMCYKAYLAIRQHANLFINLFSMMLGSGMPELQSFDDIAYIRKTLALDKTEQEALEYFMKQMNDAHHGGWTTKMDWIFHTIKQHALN
T1 sequence (P27986 whole entry partner): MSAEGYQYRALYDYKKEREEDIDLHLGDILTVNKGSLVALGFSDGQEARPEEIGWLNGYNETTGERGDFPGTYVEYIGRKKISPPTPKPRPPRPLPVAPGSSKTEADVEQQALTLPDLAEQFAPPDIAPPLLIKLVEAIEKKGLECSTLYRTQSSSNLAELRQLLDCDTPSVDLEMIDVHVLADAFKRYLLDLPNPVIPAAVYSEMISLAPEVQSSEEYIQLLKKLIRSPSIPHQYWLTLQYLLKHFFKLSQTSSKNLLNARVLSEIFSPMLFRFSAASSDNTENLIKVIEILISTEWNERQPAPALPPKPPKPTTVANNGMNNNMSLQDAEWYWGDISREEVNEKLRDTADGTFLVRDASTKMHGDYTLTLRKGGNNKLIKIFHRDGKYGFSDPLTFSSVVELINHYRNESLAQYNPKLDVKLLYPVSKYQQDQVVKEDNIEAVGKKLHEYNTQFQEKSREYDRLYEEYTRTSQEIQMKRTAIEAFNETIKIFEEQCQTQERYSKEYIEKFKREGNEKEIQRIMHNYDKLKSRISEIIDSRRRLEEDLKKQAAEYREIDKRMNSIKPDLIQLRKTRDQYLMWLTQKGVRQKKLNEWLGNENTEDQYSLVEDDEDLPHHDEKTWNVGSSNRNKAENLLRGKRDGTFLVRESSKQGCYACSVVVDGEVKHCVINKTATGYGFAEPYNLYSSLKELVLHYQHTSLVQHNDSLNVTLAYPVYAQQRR
Procedure, shortened: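 IC50 came from a variable-slope fit of % inhibition, calculated from the HTRF emission ratio relative to wells with and without enzyme. Reactions with the active enzyme complex ran 30-60 minutes at 25 °C after ATP addition before stop and detection reagents.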

[2] = biological target: T2, PI3Kγ (p120γ) (Homo sapiens, UniProt P48736); assay: HTRF assay, potency against active PI3Kγ; assay type: biochemical; conditions: [ATP]=50 μM, [di-C8-PIP2]=10 μM, 30 min pre-incubation, read-out: PI3Kγ Inhibition
T2 construct: purchased BPS Bioscience (San Diego, Calif.) or Millipore (Billerica, Mass.)
T2 sequence (P48736 whole entry): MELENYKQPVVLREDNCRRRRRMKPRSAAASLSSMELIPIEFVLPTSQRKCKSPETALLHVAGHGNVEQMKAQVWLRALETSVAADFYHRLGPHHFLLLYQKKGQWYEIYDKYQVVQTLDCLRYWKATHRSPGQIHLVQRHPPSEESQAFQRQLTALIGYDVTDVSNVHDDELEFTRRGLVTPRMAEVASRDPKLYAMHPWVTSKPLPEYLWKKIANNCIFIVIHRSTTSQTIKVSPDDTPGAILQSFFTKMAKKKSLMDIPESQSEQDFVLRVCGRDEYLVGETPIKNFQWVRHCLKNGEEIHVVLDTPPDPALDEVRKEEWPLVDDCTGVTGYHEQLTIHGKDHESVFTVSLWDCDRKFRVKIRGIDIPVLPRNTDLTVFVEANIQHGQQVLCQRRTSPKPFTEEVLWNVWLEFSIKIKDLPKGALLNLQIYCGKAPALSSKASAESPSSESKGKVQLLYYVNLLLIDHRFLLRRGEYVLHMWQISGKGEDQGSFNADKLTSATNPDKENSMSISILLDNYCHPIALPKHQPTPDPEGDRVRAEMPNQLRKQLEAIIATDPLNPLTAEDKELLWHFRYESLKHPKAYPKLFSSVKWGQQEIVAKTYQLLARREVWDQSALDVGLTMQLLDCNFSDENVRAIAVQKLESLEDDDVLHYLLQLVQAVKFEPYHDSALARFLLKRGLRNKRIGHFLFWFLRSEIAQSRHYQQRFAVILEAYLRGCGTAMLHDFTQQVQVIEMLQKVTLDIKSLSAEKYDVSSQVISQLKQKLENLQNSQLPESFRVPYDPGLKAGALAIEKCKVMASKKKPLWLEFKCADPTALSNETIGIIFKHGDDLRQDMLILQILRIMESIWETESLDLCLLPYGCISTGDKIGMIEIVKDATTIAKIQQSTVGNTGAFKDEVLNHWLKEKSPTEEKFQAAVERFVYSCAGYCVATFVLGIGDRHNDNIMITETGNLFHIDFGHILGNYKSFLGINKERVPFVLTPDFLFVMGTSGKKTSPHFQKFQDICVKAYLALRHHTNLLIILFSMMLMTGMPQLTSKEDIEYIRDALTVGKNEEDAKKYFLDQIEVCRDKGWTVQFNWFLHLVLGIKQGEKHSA
Procedure, shortened: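 End-point competition HTRF: enzyme (p110β/p85α 0.75 nM; p120γ 2-2.5 nM) with 10 μM di-C8-PIP2 pre-incubated 30 min at 25° C with compound, then 50 μM ATP added for 30-60 min at 25° C. Stopped, detected after 1 and 18 h; IC50 from variable-slope fit.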

[3] = test system: Phospho-Akt(Ser473); assay: Dose response in SKOV3 cells as determined by Western blot; assay type: cell-based; conditions: Homo sapiens, SK-OV-3, 1 hr, Phospho-Akt normalized to total Akt, read-out: Immunoblot
Procedure: Dose Response in SKOV3 Cells as Determined by Western Blot
SKOV3 cells were plated in SKOV3 Growth Media (DMEM supplemented with 10% FBS and pen/strep) at a density of 4×10^5 cells per well of 12 well plates. Twenty four hours later the media was removed and replaced with 1 ml media containing test compound and 0.1% DMSO and cells were returned to the incubator for 1 hr. At the end of the hour, the media was removed and the cells were washed with PBS, then lysed and scraped into 30 ul of Cell Extraction Buffer (Biosource, Camarillo, Calif.) plus Complete Protease Inhibitor and PhosStop Phosphatase Inhibitor (Roche, Indianapolis, Ind.).
Cell debris was spun down at 13,000×g for 1 minute and the supernatant was taken as the cell lysate. Protein concentration of the lysate was determined by BCA Assay (Pierce Biotechnology, Rockford, Ill.) and 50 ug of protein was loaded per well onto a NuPAGE Novex 4-12% Bis-Tris gel (Invitrogen, Carlsbad, Calif.) then transferred to Immobilon PVDF-FL (Millipore, Billerica, Mass.).
The blot was blocked in Odyssey Blocking Buffer (Li-Cor Biosciences, Lincoln, Nebr.) for 1 hr then incubated overnight at 4° C. with mouse anti-Akt (#2920) and rabbit anti-Phospho-Akt(Ser473) (#9271)(Cell Signaling Technology, Boston, Mass.) antibodies, both diluted 1:1000 in PBS/Odyssey Buffer (1:1)+0.1% Tween-20. The blots were washed 3 times 5 minutes in PBS+0.2% Tween-20 then incubated for 1 hr at room temperature with fluorescently labeled secondary antibodies (Li-Cor) diluted 1:10000 in PBS/Odyssey Buffer (1:1)+0.1% Tween-20.
The blots were washed 2 times for 5 minutes in PBS+0.2% Tween-20, once in distilled water, then scanned on an Odyssey machine (Li-Cor). Band intensity was determined using the Odyssey software and Phopho-Akt signal was normalized to total Akt within samples, then expressed as a percentage of the untreated Phospho-Akt signal.

[4] = test system: Phospho-Akt(Ser473); assay: Dose response in SKOV3 cells as determined by in-cell Western; assay type: cell-based; conditions: Homo sapiens, SK-OV-3; SKOV3 cells, 1 hr; read-out: pAKT Inhibition in cell Western
Procedure: Dose Response in SKOV3 Cells as Determined by in-Cell Western
Twenty four hours later the media was removed and replaced with 100 ul media containing test compound or control compound and cells were returned to the incubator for 1 hr. At the end of the hour, the media was removed and the cells were washed once with PBS, then fixed for 20 minutes at room temperature in 4% formaldehyde in PBS. The formaldehyde was removed and cells were washed 5 times for 5 minutes with 100 ul of Permeabilization Buffer (PBS+0.1% Triton X-100) at room temperature with gentle shaking. The last wash was removed and replaced with 150 ul of Odyssey Blocking Buffer (Li-Cor, Lincoln, Nebr.) and incubated for 90 minutes at room temperature with gentle shaking.
The Blocking Buffer was then replaced with 50 ul of primary antibody mix (rabbit anti-Phospho-Akt(Ser473) at 1:100 (Cell Signaling Technology, Boston, Mass.) and mouse anti-tubulin at 1:5000 (Sigma Aldrich, St. Louis, Mo.) diluted in Odyssey Blocking Buffer) and incubated overnight at room temperature with gentle shaking.
The next morning, the antibody mix was removed and the wells were washed 5 times for 5 minutes with PBS+0.1% Tween-20. The last wash was replaced with 50 ul of secondary antibody mix (goat anti-rabbit-IRDye-680 and goat anti-mouse-IRDye-800 (Li-Cor), both diluted 1:1000 in Odyssey Blocking Buffer+0.2% Tween-20) and incubated for 1 hour at room temperature with gentle shaking. The antibody mix was removed and the wells were washed 5 times for 5 minutes in PBS+0.1% Tween-20, then 1 time with ddH2O.
The plates were scanned on an Odyssey machine (Li-Cor) with a 3 mm focus offset at an intensity of 8 in both channels and the data was analyzed using the Odyssey software.

[5] = test system: SKOV3 cells; assay: GI50 determinations in SKOV3 cells; assay type: cell-based; conditions: Homo sapiens, SK-OV-3; SKOV3 cells, 96 hours, Cell Titer Glo
Procedure: GI50 Determinations in SKOV3 Cells
A standard curve ranging from 10,000 to 50,000 cells was set up in a separate plate and allowed to adhere to the plate for 4-6 hours, at which time the plate was developed using Cell Titer-Glow (Promega, Madison, Wis.) according to manufacturer's instructions.
The next morning, 3-fold compound dilutions ranging from 10,000 nM to 40 nM were prepared in Proliferation Media containing 1% DMSO. 20 ul of each dilution was added to the SKOV3 cells plated the previous day resulting in a dose response curve from 1000 nM to 4 nM. The cells were incubated for 96 hours and then developed with Cell Titer Glo.
The cell numbers at the end of the assay were determined using the standard curve generated at the start of the assay. Growth inhibition was calculated using the following formulas and GI50s were determined by plotting the % growth inhibition vs. Log compound concentration in GraphPad.
%growth=100×(T−T0)/(C−T0)
T=Cell Number at end of assay T0=Cell Number at start of assay (5000) C=Number of cells in DMSO controls at end of assay
%growth inhibition=100−%growth

Row | IC50 [1] [µM] | IC50 [2] [µM] | EC50 [4] [µM] | GI50 [5] [µM] | Structure (SMILES) | EC50 [3] [µM]
1 | 0.01 to 0.1 | > 1 | ≤ 0.01 |  | C=C(C)C(=O)CCCC(=O)N1CCN(Cc2cc3nc(-c4cccc5[nH]ncc45)nc(N4CCOCC4)c3s2)CC1 [II-a-14] | 0.01 to 0.1
2 | 0.01 to 0.1 | > 1 |  |  | C/C=C/C(=O)CCCC(=O)N1CCN(Cc2cc3nc(-c4cccc5[nH]ncc45)nc(N4CCOCC4)c3s2)CC1 [II-a-22, (E)-1-(4-((2-(1H-indazol-4-yl)-4-morpholinothieno[3,2-d]pyrimidin-6-yl)methyl)piperazin-1-yl)oct-6-ene-1,5-dione] | 0.01 to 0.1
3 | 0.01 to 0.1 |  | ≤ 0.01 | 0.01 to 0.1 | C=C(CC)C(=O)CCC(=O)N1CCN(Cc2cc3nc(-c4cccc5[nH]ncc45)nc(N4CCOCC4)c3s2)CC1 [II-a-86, 1-(4-((2-(1H-indazol-4-yl)-4-morpholinothieno[3,2-d]pyrimidin-6-yl)methyl)piperazin-1-yl)-5-methyleneheptane-1,4-dione] | 
4 | < 0.01 |  | 0.01 to 0.1 |  | O=C(/C=C/c1ccccc1)CCC(=O)N1CCN(C(=O)c2cc3nc(-c4cccc5[nH]ncc45)nc(N4CCOCC4)c3s2)CC1 [II-a-142, (E)-1-(4-(2-(1H-indazol-4-yl)-4-morpholinothieno[3,2-d]pyrimidine-6-carbonyl)piperazin-1-yl)-6-phenylhex-5-ene-1,4-dione] | 0.01 to 0.1
5 | 0.1 to 1 |  | ≤ 0.01 | 0.1 to 1 | C=CC(=O)Nc1ccc(C(=O)N2CCN(C(=O)c3cc4nc(-c5cccc6[nH]ncc56)nc(N5CCOCC5)c4s3)CC2)cc1 [II-a-143, N-(4-(4-(2-(1H-indazol-4-yl)-4-morpholinothieno[3,2-d]pyrimidine-6-carbonyl)piperazine-1-carbonyl)phenyl)acrylamide] | 
6 | 0.01 to 0.1 |  |  | 0.1 to 1 | O=C(/C=C(/c1ccccc1)C(F)(F)F)CCC(=O)N1CCN(Cc2cc3nc(-c4cccc5[nH]ncc45)nc(N4CCOCC4)c3s2)CC1 [II-a-158, (Z)-1-(4-((2-(1H-indazol-4-yl)-4-morpholinothieno[3,2-d]pyrimidin-6-yl)methyl)piperazin-1-yl)-7,7,7-trifluoro-6-phenylhept-5-ene-1,4-dione] | 
7 | 0.01 to 0.1 |  |  | 0.1 to 1 | C=CC(=O)Nc1cc(C(=O)N2CC=C(c3cc4nc(-c5cnc(N)nc5)nc(N5CCOCC5)c4s3)CC2)ccc1Cl [II-a-159, N-(5-(4-(2-(2-aminopyrimidin-5-yl)-4-morpholinothieno[3,2-d]pyrimidin-6-yl)-1,2,3,6-tetrahydropyridine-1-carbonyl)-2-chlorophenyl)acrylamide] | 
8 | > 1 |  | 0.01 to 0.1 | 0.1 to 1 | O=C(/C=C/c1ccccn1)CCC(=O)NCC12CCC(c3cc4nc(-c5cccc6[nH]ncc56)nc(N5CCOCC5)c4s3)(CC1)OC2 [II-a-163, (E)-N-((1-(2-(1H-indazol-4-yl)-4-morpholinothieno[3,2-d]pyrimidin-6-yl)-2-oxabicyclo[2.2.2]octan-4-yl)methyl)-4-oxo-6-(pyridin-2-yl)hex-5-enamide] | 
9 | 0.1 to 1 |  | 0.01 to 0.1 |  | C=CC(=O)Nc1ccc(COCc2cc3nc(-c4cnc(N)nc4)nc(N4CCOCC4)c3s2)cc1 [II-a-173, N-(4-(((2-(2-aminopyrimidin-5-yl)-4-morpholinothieno[3,2-d]pyrimidin-6-yl)methoxy)methyl)phenyl)acrylamide] | ≤ 0.01
10 | 0.1 to 1 | 0.1 to 1 | ≤ 0.01 |  | CC(C)=CC(=O)CCCC(=O)N1CC=C(c2cc3nc(-c4cnc(N)nc4)cc(N4CCOCC4)c3s2)CC1 [II-g-3, 1-(4-(5-(2-aminopyrimidin-5-yl)-7-morpholinothieno[3,2-b]pyridin-2-yl)-5,6-dihydropyridin-1(2H)-yl)-7-methyloct-6-ene-1,5-dione] | 0.1 to 1
11 | 0.01 to 0.1 |  |  | 0.01 to 0.1 | C=CC(=O)Nc1ccc(C(=O)NCCOc2ccc3c(c2OC)N=C(NC(=O)c2cccnc2)N2CCN=C32)cc1 [IX-5, N-(8-(2-(4-acrylamidobenzamido)ethoxy)-7-methoxy-2,3-dihydroimidazo[1,2-c]quinazolin-5-yl)nicotinamide] | 
12 | 0.1 to 1 |  | 0.1 to 1 | 0.1 to 1 | C=CC(=O)Nc1ccc(C(=O)N2CCC(n3ncc4c(N5CCOCC5)nc(-c5ccc(NC(=O)NC)cc5)nc43)CC2)cc1 [VII-8, N-(4-(4-(6-(4-(3-methylureido)phenyl)-4-morpholino-1H-pyrazolo[3,4-d]pyrimidin-1-yl)piperidine-1-carbonyl)phenyl)acrylamide] | 
13 | 0.1 to 1 |  |  | 0.01 to 0.1 | CNC(=O)Nc1ccc(-c2nc(N3CCOCC3)c3cnn(C4CCN(C(=O)CCC(=O)/C=C/c5ccccc5)CC4)c3n2)cc1 [VII-10, (E)-1-methyl-3-(4-(4-morpholino-1-(1-(4-oxo-6-phenylhex-5-enoyl)piperidin-4-yl)-1H-pyrazolo[3,4-d]pyrimidin-6-yl)phenyl)urea] | 
14 | 0.1 to 1 |  |  | 0.1 to 1 | CNC(=O)Nc1ccc(-c2nc(N3CCOCC3)c3cnn(C4CCN(C(=O)CCCC(=O)/C=C/c5ccccc5)CC4)c3n2)cc1 [VII-11, (E)-1-methyl-3-(4-(4-morpholino-1-(1-(5-oxo-7-phenylhept-6-enoyl)piperidin-4-yl)-1H-pyrazolo[3,4-d]pyrimidin-6-yl)phenyl)urea] | 
15 | 0.1 to 1 |  | 0.01 to 0.1 |  | C=CC(=O)Nc1ccc(CC(=O)N2CCC(n3ncc4c(N5CCOCC5)nc(-c5cnc(N)nc5)nc43)CC2)cc1 [VII-13, N-(4-(2-(4-(6-(2-aminopyrimidin-5-yl)-4-morpholino-1H-pyrazolo[3,4-d]pyrimidin-1-yl)piperidin-1-yl)-2-oxoethyl)phenyl)acrylamide] | 0.01 to 0.1
